Data taken from patent US11267800B2, “Cyclohexyl acid triazole azines as LPA antagonists” (BRISTOL-MYERS SQUIBB COMPANY, priority 2017, dated 2022).
Counter-ions that a name gives are not always drawn.

Molecular target: T1, human LPA1 (Homo sapiens, UniProt Q92633)
T1 construct: expressed in transfected cells; host or cells: Chinese hamster ovary (CHO) cells
Experiment: LPA1 functional antagonist assay (calcium flux)
Assay type: cell-based
Settings: CHO cells overexpressing human LPA1; inhibition of calcium flux induced by 10 nM LPA; read-out: hLPA1 IC50
Method in brief: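 Dye-loaded CHO cells overexpressing human LPA1 (30 min, 37 °C) were preincubated 20 min at room temperature with compound (0.08 nM–5 μM; 0.5% DMSO; HBSS, 20 mM HEPES, 0.1% fatty-acid-free BSA), then stimulated with 10 nM LPA. IC50 is the concentration inhibiting 50% of LPA-induced calcium flux, from a 4-parameter logistic fit.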

T1 sequence (Q92633 whole entry): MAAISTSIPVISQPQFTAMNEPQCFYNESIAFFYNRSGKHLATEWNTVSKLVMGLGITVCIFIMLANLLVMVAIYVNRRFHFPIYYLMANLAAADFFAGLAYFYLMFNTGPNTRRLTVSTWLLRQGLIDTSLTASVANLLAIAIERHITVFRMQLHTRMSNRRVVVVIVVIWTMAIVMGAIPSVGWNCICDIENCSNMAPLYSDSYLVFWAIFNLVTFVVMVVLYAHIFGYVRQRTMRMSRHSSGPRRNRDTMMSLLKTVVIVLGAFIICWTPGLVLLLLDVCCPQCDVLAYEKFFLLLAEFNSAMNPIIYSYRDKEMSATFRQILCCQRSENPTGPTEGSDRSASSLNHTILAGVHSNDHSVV

Row | IC50 | Compound
1 | 6.8 nM | CCCCc1cnnc(NCc2c(-c3ccc(O[C@H]4CCC[C@H](C(=O)O)C4)c(C)n3)nnn2C)n1 [Example 193, (1S,3S)-3-((6-(5-(((5-Butyl-1,2,4-triazin-3-yl)amino)methyl)-1-methyl-1H-1,2,3-triazol-4-yl)-2-methylpyridin-3-yl)oxy)cyclohexane-1-carboxylic acid, bis TFA]
2 | 300 nM | Cc1cnc(NCc2c(-c3ccc(O[C@H]4CCC[C@H](C(=O)O)C4)cn3)nnn2C)nc1-c1ccccn1 [Example 30]
3 | 106 nM | Cc1nc(-c2nnn(C)c2CNc2ncnc(C(C)C)n2)ccc1O[C@H]1CCC[C@H](C(=O)O)C1 [Example 181]
4 | 33 nM | Cc1nc(-c2nnn(C)c2CNc2nccc(Oc3cc(F)ccc3F)n2)ccc1O[C@H]1CCC[C@H](C(=O)O)C1 [Example 103]
5 | 109 nM | Cc1nc(-c2nnn(C)c2CNc2nccc(OC3CCCC3)n2)ccc1O[C@H]1CCC[C@H](C(=O)O)C1 [Example 85]
6 | 48 nM | Cc1nc(-c2nnn(C)c2CNc2ncnc(C3CC3)n2)ccc1O[C@H]1CCC[C@H](C(=O)O)C1 [Example 187, (1S,3S)-3-((6-(5-(((4-Cyclopropyl-1,3,5-triazin-2-yl)amino)methyl)-1-methyl-1H-1,2,3-triazol-4-yl)-2-methylpyridin-3-yl)oxy)cyclohexane-1-carboxylic acid, bis TFA Salt]
7 | 25 nM | Cc1nc(-c2nnn(C)c2CNc2nccc(OCCCF)n2)ccc1O[C@H]1CCC[C@H](C(=O)O)C1 [Example 102]
8 | 21 nM | Cc1nc(-c2nnn(C)c2COc2nccc(C(C)(F)F)n2)ccc1O[C@H]1CCC[C@H](C(=O)O)C1 [Example 370]
9 | 218 nM | COc1cc(NCc2c(-c3ccc(O[C@H]4CCC[C@H](C(=O)O)C4)c(C)n3)nnn2C)ncn1 [Example 24]
10 | 498 nM | Cc1nc(-c2nnn(C)c2CNc2nncc(C(C)(C)C)n2)ccc1O[C@H]1CCC[C@H](C(=O)O)C1 [Example 178]
11 | 63 nM | Cc1nc(-c2nnn(C)c2CNc2nccc(NCCc3ccc(F)cc3)n2)ccc1O[C@H]1CCC[C@H](C(=O)O)C1 [Example 62]
12 | 85 nM | CCCc1cc(OCc2c(-c3ccc(O[C@H]4CCC[C@H](C(=O)O)C4)c(C)n3)nnn2C)ncn1 [Example 294]
13 | 15 nM | Cc1nc(-c2nnn(C)c2COc2cc(C3CC3)ncn2)ccc1O[C@H]1CCC[C@H](C(=O)O)C1 [Example 275]
14 | 101 nM | Cc1nc(-c2nnn(C)c2CNc2nccc(-c3ccccn3)n2)ccc1O[C@H]1CCC[C@H](C(=O)O)C1 [Example 21]
15 | 39 nM | Cn1nnc(-c2ccc(O[C@H]3CCC[C@H](C(=O)O)C3)cn2)c1CNc1nccc(-c2ccccn2)n1 [Example 29]
16 | 29 nM | Cc1cc(OC(C)C)nc(NCc2c(-c3ccc(O[C@H]4CCC[C@H](C(=O)O)C4)c(C)n3)nnn2C)n1 [Example 16]
17 | 80 nM | Cc1nc(-c2nnn(C)c2CNc2cc(C3CC3)ncn2)ccc1O[C@H]1CCC[C@H](C(=O)O)C1 [Example 373]
18 | 45 nM | CCc1nc(-c2nnn(C)c2CNc2nccc(C3CC3)n2)ccc1O[C@H]1CCC[C@H](C(=O)O)C1 [Example 388]
19 | 38 nM | CCCCc1ncnc(N(C)Cc2c(-c3ccc(O[C@H]4CCC[C@H](C(=O)O)C4)c(C)n3)nnn2C)n1 [Example 381]
20 | 54 nM | Cc1nc(-c2nnn(C)c2CNc2nccc(OCC(F)(F)F)n2)ccc1O[C@H]1CCC[C@H](C(=O)O)C1 [Example 90]
21 | 16 nM | Cc1nc(-c2nnn(C)c2CNc2cc(C3CC3)ccn2)ccc1O[C@H]1CCC[C@H](C(=O)O)C1 [Example 371, (1S,3S)-3-((6-(5-(((4-cyclopropylpyridin-2-yl)amino)methyl)-1-methyl-1H-1,2,3-triazol-4-yl)-2-methylpyridin-3-yl)oxy)cyclohexane-1-carboxylic acid]
22 | 41 nM | [2H]C([2H])([2H])C([2H])(Oc1ccnc(NCc2c(-c3ccc(O[C@H]4CCC[C@H](C(=O)O)C4)c(C)n3)nnn2C)n1)C([2H])([2H])[2H] [Example 67]
23 | 31 nM | CCc1cncc(OCc2c(-c3ccc(O[C@H]4CCC[C@H](C(=O)O)C4)c(C)n3)nnn2C)n1 [Example 300]
24 | 319 nM | Cc1nc(-c2nnn(C)c2CNc2ncnc(N3CCCC3)n2)ccc1O[C@H]1CCC[C@H](C(=O)O)C1 [Example 70]
25 | 22 nM | CCOc1ccnc(NCc2c(-c3ccc(O[C@H]4CCC[C@H](C(=O)O)C4)cn3)nnn2C)n1 [Example 141]
26 | 32 nM | Cc1nc(-c2nnn(C)c2CNc2nccc(OCC(F)(F)C(F)F)n2)ccc1O[C@H]1CCC[C@H](C(=O)O)C1 [Example 91]

More lines, now with the values behind:

Row | Compound | IC50
27 | Cc1nc(-c2nnn(C)c2CNc2nccc(C(C)(C)CO)n2)ccc1O[C@H]1CCC[C@H](C(=O)O)C1 [Example 128] | 855 nM
28 | COc1cccc(Oc2ccnc(NCc3c(-c4ccc(O[C@H]5CCC[C@H](C(=O)O)C5)c(C)n4)nnn3C)n2)c1 [Example 105] | 22 nM
29 | Cc1nc(-c2nnn(C)c2CNc2ncnc(NCCC3CC3)n2)ccc1O[C@H]1CCC[C@H](C(=O)O)C1 [Example 48] | 220 nM
30 | CCCNc1nc(OCc2c(-c3ccc(O[C@H]4CCC[C@H](C(=O)O)C4)c(C)n3)nnn2C)ncc1F [Example 263] | 96 nM
31 | Cc1nc(-c2nnn(C)c2CNc2nc(C#N)cc(C3CCC3)n2)ccc1O[C@H]1CCC[C@H](C(=O)O)C1 [Example 164] | 42 nM
32 | CCC(C)c1nc(O)nc(NCc2c(-c3ccc(O[C@H]4CCC[C@H](C(=O)O)C4)c(C)n3)nnn2C)n1 (mixture of isomers) [Example 198, (1S,3S)-3-((6-(5-(((4-(sec-Butyl)-6-hydroxy-1,3,5-triazin-2-yl)amino)methyl)-1-methyl-1H-1,2,3-triazol-4-yl)-2-methylpyridin-3-yl)oxy) cyclohexane-1-carboxylic acid] | 130 nM
33 | Cc1nc(-c2nnn(C)c2CNc2ncc(F)c(NC3CC3)n2)ccc1O[C@H]1CCC[C@H](C(=O)O)C1 [Example 45] | 109 nM
34 | Cc1nc(-c2nnn(C)c2CNc2ncnc(C(C)(C)C)n2)ccc1O[C@H]1CCC[C@H](C(=O)O)C1 [Example 182] | 693 nM
35 | Cc1nc(-c2nnn(C)c2CNc2nccc(C3CC(F)(F)C3)n2)ccc1O[C@H]1CCC[C@H](C(=O)O)C1 [Example 160] | 17 nM
36 | COc1ccccc1-c1ccnc(NCc2c(-c3ccc(O[C@H]4CCC[C@H](C(=O)O)C4)c(C)n3)nnn2C)n1 [Example 22] | 219 nM
37 | Cc1nc(-c2nnn(C)c2CNc2cccc(C(C)C)n2)ccc1O[C@H]1CCC[C@H](C(=O)O)C1 [Example 266] | 87 nM
38 | COc1cnc(NCc2c(-c3ccc(O[C@H]4CCC[C@H](C(=O)O)C4)c(C)n3)nnn2C)nc1C(C)(C)C [Example 120] | 344 nM
39 | COc1cc(C(C)C)nc(NCc2c(-c3ccc(O[C@H]4CCC[C@H](C(=O)O)C4)c(C)n3)nnn2C)n1 [Example 176] | 27 nM
40 | COc1nc(NCc2c(-c3ccc(O[C@H]4CCC[C@H](C(=O)O)C4)c(C)n3)nnn2C)nc(-c2ccccc2)n1 [Example 4, (1S,3S)-3-((6-(5-(((4-Methoxy-6-phenyl-1,3,5-triazin-2-yl)amino)methyl)-1-methyl-1H-1,2,3-triazol-4-yl)-2-methylpyridin-3-yl)oxy)cyclohexanecarboxylic acid] | 153 nM
41 | CCCc1ncnc(NCc2c(-c3ccc(O[C@H]4CCC[C@H](C(=O)O)C4)cn3)nnn2C)n1 [Example 221, (1S,3S)-3-((6-(1-methyl-5-(((4-propyl-1,3,5-triazin-2-yl)amino)methyl)-1H-1,2,3-triazol-4-yl)pyridin-3-yl)oxy) cyclohexane-1-carboxylic acid] | 63 nM
42 | Cc1nc(-c2nnn(C)c2CNc2cc(C(C)C)cnn2)ccc1O[C@H]1CCC[C@H](C(=O)O)C1 [Example 217, (1S,3S)-3-((6-(5-(((5-Isopropyl-pyridazin-3-yl)amino)methyl)-1-methyl-1H-1,2,3-triazol-4-yl)-2-methylpyridin-3-yl)oxy)cyclohexane-1-carboxylic acid] | 97 nM
43 | CCc1ccnc(OCc2c(-c3ccc(O[C@H]4CCC[C@H](C(=O)O)C4)c(C)n3)nnn2C)c1 [Example 280] | 15.3 nM
44 | Cc1nc(-c2nnn(C)c2CNc2cc(OC(F)(F)F)ccn2)ccc1O[C@@H]1CCC[C@@H](C(=O)O)C1 [Example 75] | 413 nM
45 | Cc1nc(-c2nnn(C)c2CNc2cncc(-c3ccccc3)n2)ccc1O[C@H]1CCC[C@H](C(=O)O)C1 [Example 220, (1S,3S)-3-((2-Methyl-6-(1-methyl-5-(((6-phenylpyrazin-2-yl)amino)methyl)-1H-1,2,3-triazol-4-yl)pyridin-3-yl)oxy)cyclohexane-1-carboxylic acid] | 30 nM
46 | Cn1nnc(-c2ccc(O[C@H]3CCC[C@H](C(=O)O)C3)cn2)c1CNc1ncnc(C2CC2)n1 [Example 223, (1S,3S)-3-((6-(5-(((4-cyclopropyl-1,3,5-triazin-2-yl)amino)methyl)-1-methyl-1H-1,2,3-triazol-4-yl)pyridin-3-yl)oxy)cyclohexane-1-carboxylic acid] | 211 nM
47 | Cc1nc(-c2nnn(C)c2COc2cc(OC(F)F)ncn2)ccc1O[C@H]1CCC[C@H](C(=O)O)C1 [Example 255, (1S,3S)-3-((6-(5-(((6-(difluoromethoxy)pyrimidin-4-yl)oxy)methyl)-1-methyl-1H-1,2,3-triazol-4-yl)-2-methylpyridin-3-yl)oxy)cyclohexane-1-carboxylicacid] | 12.9 nM
48 | Cc1nc(-c2nnn(C)c2CNc2cc(C3CC3)cnn2)ccc1O[C@H]1CCC[C@H](C(=O)O)C1 [Example 215, (1S,3S)-3-((6-(5-(((5-Cyclopropyl-pyridazin-3-yl)amino)methyl)-1-methyl-1H-1,2,3-triazol-4-yl)-2-methylpyridin-3-yl)oxy)cyclohexane-1-carboxylic acid] | 278 nM
49 | Cn1nnc(-c2ccc(O[C@H]3CCC[C@H](C(=O)O)C3)cn2)c1CNc1ccnc(OCC2(C)CC2)n1 [Example 403] | 2310 nM
50 | Cc1nc(-c2nnn(C)c2COc2cc(COC3CC3)ccn2)ccc1O[C@H]1CCC[C@H](C(=O)O)C1 [Example 323] | 71 nM
